The record followed here is patent publication US8614221B2, “Inhibitors of Akt activity” (Merck Sharp & Dohme Corp., priority 2009, dated 2013).

In assay [1] the target is T1, Akt2 kinase (Homo sapiens, UniProt P31751).
T1 construct: a middle T tag was added to the 5′ end of the full length Akt2 using the PCR primer; middle T tag (EYMPME) (N); biotin tag (from pS2neo vector); made in house; host or cells: Drosophila S2 cells
The assay is described as follows: Akt kinase assay (HTRF, GSK-derived biotinylated peptide substrate). The class given is biochemical. The method, then: (§1) Activated Akt isoforms and pleckstrin homology domain deletion constructs were assayed utilizing a GSK-derived biotinylated peptide substrate. The extent of peptide phosphorylation was determined by Homogeneous Time Resolved Fluorescence (HTRF) using a lanthanide chelate(Lance)-coupled monoclonal antibody specific for the phosphopeptide in combination with a streptavidin-linked allophycocyanin (SA-APC) fluorophore which will bind to the biotin moiety on the peptide. When the Lance and APC are in proximity (i.e. bound to the same phosphopeptide molecule), a non-radiative energy transfer takes place from the Lance to the APC, followed by emission of light from APC at 665 nm.
(§2) Materials required for the assay:
(§3) A. Activated Akt isozyme or pleckstrin homology domain deleted construct
(§4) B. Akt peptide substrate: GSK3α (S21) Peptide #3928 biotin-GGRARTSSFAEPG (SEQ. ID. NO. 15), Macromolecular Resources.
(§5) C. Lance labeled anti-phospho GSK3α monoclonal antibody (Cell Signaling Technology, clone #27).
(§6) D. SA-APC (Prozyme catalog no. MSS lot #896067).
(§7) E. Microfluor®B U Bottom Microtiter Plates (Dynex Technologies, Catalog no. 7205).
(§8) F. Discovery® HTRF Microplate Analyzer, Packard Instrument Company.
(§9) G. 100× Protease Inhibitor Cocktail (PIC): 1 mg/mL benzamidine, 0.5 mg/mL pepstatin, 0.5 mg/mL leupeptin, 0.5 mg/mL aprotinin.
(§10) H. 10× Assay Buffer: 500 mM HEPES, pH 7.5, 1% PEG, […], 1 mM EGTA, 1% BSA, 20 mM θ-Glycerol phosphate.
(§11) I. Quench Buffer: 50 mM HEPES pH 7.3, 16.6 mM EDTA, 0.1% BSA, 0.1% Triton X-100, 0.17 nM Lance labeled monoclonal antibody clone #27, 0.0067 mg/mL SA-APC
(§12) J. ATP/MgCl2 working solution: 1× Assay buffer, 1 mM DTT, 1×PIC, 125 mM KCl, 5% Glycerol, 25 mM MgCl2, 375 μM ATP
(§13) K. Enzyme working solution: 1× Assay buffer, 1 mM DTT, 1×PIC, 5% Glycerol, active Akt. The final enzyme concentrations were selected so that the assay was in a linear response range.
(§14) L. Peptide working solution: 1× Assay buffer, 1 mM DTT, 1×PIC, 5% Glycerol, 2 μM GSK3 biotinylated peptide #3928
(§15) The reaction is assembled by adding 16 μL of the ATP/MgCl2 working solution to the appropriate wells of a 96-well microliter plate. Inhibitor or vehicle (1.0 μL) is added followed by 10 μL of peptide working solution. The reaction is started by adding 13 μL of the enzyme working solution and mixing. The reaction is allowed to proceed for 50 min and then stopped by the addition of 60 μL HTRF quench buffer. The stopped reactions were incubated at room temperature for at least 30 min and then read on the Discovery instrument.

The target in assay [2] is T2, Akt1 kinase (Homo sapiens, UniProt P31749).
T2 construct: a middle T tag was added to the 5′ end of the full length Akt1 gene; middle T tag (EYMPME) (N); biotin tag (from pS2neo vector); made in house; host or cells: Drosophila S2 cells
T2 sequence (P31749 whole entry): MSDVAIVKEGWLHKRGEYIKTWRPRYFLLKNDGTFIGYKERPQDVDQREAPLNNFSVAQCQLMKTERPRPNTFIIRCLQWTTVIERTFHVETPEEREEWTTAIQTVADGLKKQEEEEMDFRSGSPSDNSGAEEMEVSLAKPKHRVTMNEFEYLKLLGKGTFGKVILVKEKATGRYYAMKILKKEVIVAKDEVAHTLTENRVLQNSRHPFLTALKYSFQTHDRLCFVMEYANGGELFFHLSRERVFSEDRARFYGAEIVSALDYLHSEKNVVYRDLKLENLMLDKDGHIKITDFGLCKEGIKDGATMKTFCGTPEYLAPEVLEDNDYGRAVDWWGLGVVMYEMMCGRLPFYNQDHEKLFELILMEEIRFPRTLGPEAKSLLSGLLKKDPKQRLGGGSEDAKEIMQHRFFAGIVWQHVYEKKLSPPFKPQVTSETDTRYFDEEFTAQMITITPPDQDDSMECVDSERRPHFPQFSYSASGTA
The assay is described as above. Type of assay: biochemical. Here is the method:
as §1, §2, §3, §4, §5, §6, §7, §8, §9, §10, §11, §12, §13, §14, §15

Structures are written as SMILES.

T1 sequence (P31751 whole entry): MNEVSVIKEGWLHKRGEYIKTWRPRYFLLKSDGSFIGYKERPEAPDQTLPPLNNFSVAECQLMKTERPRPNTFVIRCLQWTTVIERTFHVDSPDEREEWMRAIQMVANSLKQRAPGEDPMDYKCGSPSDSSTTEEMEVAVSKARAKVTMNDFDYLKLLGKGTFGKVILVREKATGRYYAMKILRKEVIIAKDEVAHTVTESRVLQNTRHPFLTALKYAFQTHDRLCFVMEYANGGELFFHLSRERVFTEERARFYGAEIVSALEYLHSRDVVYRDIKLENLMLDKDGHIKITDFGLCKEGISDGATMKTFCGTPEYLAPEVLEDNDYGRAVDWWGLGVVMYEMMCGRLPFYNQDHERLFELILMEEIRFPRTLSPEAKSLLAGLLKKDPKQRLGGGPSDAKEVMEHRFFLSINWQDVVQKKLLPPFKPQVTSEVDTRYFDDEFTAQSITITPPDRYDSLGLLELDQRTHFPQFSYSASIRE

For the compound `Cc1cc2ncc3cc(-c4ccccc4)c(-c4ccc([C@]5(N)C[C@@](O)(C6CC6)C5)cc4)nc3n2n1` [EXAMPLE 1-9, trans-3-amino-1-cyclopropyl-3-[4-(2-methyl-7-phenylpyrazolo[1,5-a]pyrido[3,2-e]pyrimidin-8-yl)phenyl]cyclobutanol], the IC50 in assay [1] stood at 0.029 µM; in assay [2], 0.004 µM.

With `NC1(c2ccc(-c3nc4c(ccn5c(C6CC6)nnc45)cc3-c3ccccc3)cc2)CCC1` [EXAMPLE 9-2, 1-{4-[3-cyclopropyl-8-phenyl[1,2,4]triazolo[4,3-h]-1,7-naphthyridin-9-yl)phenyl}cyclobutanamine], the figures for the half-maximal inhibitory concentration (IC50) in assay [1] and in assay [2] were 0.0338 µM and 0.0327 µM, respectively.

Turning to `c1ccc(-c2cc3cnc4nc(N5CCOCC5)nn4c3nc2-c2ccc(CN3CCC(c4nnc(-c5ccccn5)[nH]4)CC3)cc2)cc1` [EXAMPLE 12-3, 2-morpholin-4-yl-7-phenyl-8-(4-{[4-(5-pyridin-2-yl-4H-1,2,4-triazol-3-yl)piperidin-1-yl]methyl}phenyl)pyrido[3,2-e][1,2,4]triazolo[1,5-a]pyrimidine], the figures for the IC50 in assay [1] and in assay [2] were 0.0338 µM and 0.0046 µM, respectively.

Consider `C=CCNC(=O)C1CCN(Cc2ccc(-c3nc4c(cnc5cc(C)nn54)cc3-c3ccccc3)cc2)CC1` [EXAMPLE 15-3, 2-methyl-7-phenyl-8-(4-{[4-(prop-2-en-1-ylcarbamoyl)piperidin-1-yl]methyl}phenyl)pyrazolo[1,5-a]pyrido[3,2-e]pyrimidine], for which the IC50 in assay [1] is 0.578 µM; in assay [2], 0.0372 µM.
